Experimental data published in US6943164B2, “Pharmaceutical solutions of levosimendan” (Orion Corporation, priority 1999, dated 2005).
Values after ≈ are worked out from the molar mass of the structure shown.

Tests used:
[1] = pKa of levosimendan; format: physicochemical
Experimental: (§1) At room temperature the solubility of levosimendan in phosphate buffer is 0.4 mg/ml (pH 7.4), 0.03 mg/ml (pH 6) and 0.02 mg/ml (pH 2). Thus, the water solubility of levosimendan decreases quite sharply when pH is lowered below neutral. […] Such solutions are chemically and physically stable over an extended period of time and, therefore, they are particularly suitable for pharmaceutical use.

[2] = Solubility of levosimendan in phosphate buffer at room temperature; format: physicochemical; details: aqueous buffer
Experimental: as §1

pKa [1]: 6.26
solubility ([2]; pH 2): 20 µg/mL (≈ 71.4 µM)
solubility ([2]; pH 6): 30 µg/mL (≈ 107 µM)
solubility ([2]; pH 7.4): 400 µg/mL (≈ 1430 µM)
SMILES: CC1CC(=O)NN=C1c1ccc(NN=C(C#N)C#N)cc1 (single isomer, unassigned; (-)) [levosimendan, (−)-[[4-(1,4,5,6-tetrahydro-4-methyl-6-oxo-3-pyridazinyl)phenyl]hydrazono]propanedinitrile]
